Measured values as given in patent publication USRE48711E1, “Apoptosis signal-regulating kinase inhibitors” (Gilead Sciences, Inc., priority 2009, dated 2021).

These compounds were tested against ASK1 (Apoptosis Signal-Regulating Kinase 1) (Homo sapiens (Human), UniProt Q99683) (assay: ASK1 (Apoptosis Signal-Regulating Kinase 1) TR-FRET Kinase Assay (Biochemical IC50)). Conditions: not given.
ASK1 (Apoptosis Signal-Regulating Kinase 1), sequence (Q99683 649-946): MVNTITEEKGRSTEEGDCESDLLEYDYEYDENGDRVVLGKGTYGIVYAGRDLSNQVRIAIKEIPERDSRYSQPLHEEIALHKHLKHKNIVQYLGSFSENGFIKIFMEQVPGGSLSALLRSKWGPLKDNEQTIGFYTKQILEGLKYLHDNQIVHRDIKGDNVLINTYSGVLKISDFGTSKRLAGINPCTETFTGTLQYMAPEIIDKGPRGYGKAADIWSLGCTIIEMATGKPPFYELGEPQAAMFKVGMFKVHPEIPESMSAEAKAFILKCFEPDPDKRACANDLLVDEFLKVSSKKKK

Compound | IC50 [nM]
C[C@@H](O)Cn1cnnc1-c1cccc(NC(=O)c2cc(-c3cccnc3)ccn2)c1 [Example 34, (R)-N-(3-(4-(2-hydroxypropyl)-4H-1,2,4-triazol-3-yl)phenyl)-3,4′-bipyridine-2′-carboxamide] | 195

Same assay, conditions: TR-FRET, biotin-MBP substrate, 20 min pre-incubation, ATP added as 300 μM solution

Compound | IC50 [nM]
C[C@@H](O)[C@H](C)n1cnnc1-c1cccc(NC(=O)c2cc(-c3ccc(C4CC4)nc3)ccn2)n1 [Example 247, 6-cyclopropyl-N-(6-(4-((2S,3R)-3-hydroxybutan-2-yl)-4H-1,2,4-triazol-3-yl)pyridin-2-yl)-3,4′-bipyridine-2′-carboxamide] | 10
O=C(Nc1ccnc(-c2nncn2C2CC2)c1)c1cc(-c2cnc3ccccc3c2)ccn1 [Example 153, N-(2-(4-cyclopropyl-4H-1,2,4-triazol-3-yl)pyridin-4-yl)-4-(quinolin-3-yl)picolinamide] | 409
O=C(Nc1cccc(-c2nncn2C2CC2)c1)c1cc(-n2nnc3ccccc32)ccn1 [Example 85, 4-(1H-benzo[d][1,2,3]triazol-1-yl)-N-(3-(4-cyclopropyl-4H-1,2,4-triazol-3-yl)phenyl)picolinamide] | 141
O=C(Nc1cccc(-c2nncn2C2CCC2)c1)c1cc(-c2ccc(C3CC3)nc2)ccn1 [Example 221, N-(3-(4-cyclobutyl-4H-1,2,4-triazol-3-yl)phenyl)-6-cyclopropyl-3,4′-bipyridine-2′-carboxamide] | 31
O=C(Nc1cccc(-c2nncn2C2CC2)c1)c1cc(-c2cnc3ccccn23)ccn1 [Example 69, N-(3-(4-cyclopropyl-4H-1,2,4-triazol-3-yl)phenyl)-4-(imidazo[1,2-a]pyridin-3-yl)picolinamide] | 11
C[C@@H](n1cnnc1-c1cccc(NC(=O)c2cc(-c3cccnc3)ccn2)c1)C(F)(F)F [Example 62, (R)-N-(3-(4-(1,1,1-trifluoropropan-2-yl)-4H-1,2,4-triazol-3-yl)phenyl)-3,4′-bipyridine-2′-carboxamide] | 1240
Cn1cnnc1-c1cccc(NC(=O)c2cc(-c3ccccc3)ccn2)c1 [Example 4, N-(3-(4-methyl-4H-1,2,4-triazol-3-yl)phenyl)-4-phenylpicolinamide] | 701
O=C(Nc1cccc(-c2nncn2C2CC2)n1)c1cccc(-n2cnc(C3CC3)c2)c1 [Example 192, 3-(4-cyclopropyl-1H-imidazol-1-yl)-N-(6-(4-cyclopropyl-4H-1,2,4-triazol-3-yl)pyridin-2-yl)benzamide] | 7
C[C@H](O)Cn1cnnc1-c1cccc(NC(=O)c2cc(-c3cccnc3)ccn2)c1 [Example 35, (S)-N-(3-(4-(2-hydroxypropyl)-4H-1,2,4-triazol-3-yl)phenyl)-3,4′-bipyridine-2′-carboxamide] | 87
NC(=O)c1ccc(-c2ccnc(C(=O)Nc3cccc(-c4nncn4C4CC4)c3)c2)cn1 [Example 51, N2′-(3-(4-cyclopropyl-4H-1,2,4-triazol-3-yl)phenyl)-3,4′-bipyridine-2′,6-dicarboxamide] | 8
O=C(Nc1cccc(-c2nncn2C2CC2)c1)c1cc(-c2cncc(F)c2)ccn1 [Example 60, N-(3-(4-cyclopropyl-4H-1,2,4-triazol-3-yl)phenyl)-5-fluoro-3,4′-bipyridine-2′-carboxamide] | 23
C[C@@H](C(=O)OC(C)(C)C)n1cnnc1-c1cccc(NC(=O)c2cc(-c3ccc(C4CC4)nc3)ccn2)c1 [Example 222, (S)-tert-butyl 2-(3-(3-(6-cyclopropyl-3,4′-bipyridine-2′-carboxamido)phenyl)-4H-1,2,4-triazol-4-yl)propanoate] | 79
Cc1c(-c2ccnc(C(=O)Nc3cccc(-c4nncn4C4CC4)c3)c2)cnn1C [Example 90, N-(3-(4-cyclopropyl-4H-1,2,4-triazol-3-yl)phenyl)-4-(1,5-dimethyl-1H-pyrazol-4-yl)picolinamide] | 38
O=C(Nc1cccc(-c2nncn2C2CC2)c1)c1cc(-n2cnc3c2CCNC3C(F)(F)F)ccn1 (stereo not drawn) [Example 194, N-(3-(4-cyclopropyl-4H-1,2,4-triazol-3-yl)phenyl)-4-(4-(trifluoromethyl)-4,5,6,7-tetrahydro-1H-imidazo[4,5-c]pyridin-1-yl)picolinamide] | 12
O=C(Nc1cccc(-c2nncn2C2CC2)n1)c1cccc(-c2ccc(C3CC3)nc2)n1 [Example 258, 6′-cyclopropyl-N-(6-(4-cyclopropyl-4H-1,2,4-triazol-3-yl)pyridin-2-yl)-2,3′-bipyridine-6-carboxamide] | 852
Cc1cc(-c2ccnc(C(=O)Nc3cccc(-c4nncn4C4CC4)c3)c2)cnc1F [Example 48, N-(3-(4-cyclopropyl-4H-1,2,4-triazol-3-yl)phenyl)-6-fluoro-5-methyl-3,4′-bipyridine-2′-carboxamide] | 37
O=C(Nc1cccc(-c2nncn2C2CC2)c1)c1cc(-c2cccnc2)c2ccccc2n1 [Example 80, N-(3-(4-cyclopropyl-4H-1,2,4-triazol-3-yl)phenyl)-4-(pyridin-3-yl)quinoline-2-carboxamide] | 36
CC(O)[C@@H](C)n1cnnc1-c1cccc(NC(=O)c2cc(-c3ccc(C4CC4)nc3)ccn2)n1 (stereo partly drawn) [Example 248, 6-cyclopropyl-N-(6-(4-((2R)-3-hydroxybutan-2-yl)-4H-1,2,4-triazol-3-yl)pyridin-2-yl)-3,4′-bipyridine-2′-carboxamide] | 7

Compound | IC50 [nM]
O=C(Nc1cccc(-c2nncn2C2CC2)c1)c1cc(-c2ccc(C3CCC3)nc2)ccn1 [Example 103, 6-cyclobutyl-N-(3-(4-cyclopropyl-4H-1,2,4-triazol-3-yl)phenyl)-3,4′-bipyridine-2′-carboxamide] | 11
O=C(Nc1cccc(-c2nncn2C2CC2)c1)c1cc(-c2ccc(O)nc2)ccn1 [Example 31, N-(3-(4-cyclopropyl-4H-1,2,4-triazol-3-yl)phenyl)-6-hydroxy-3,4′-bipyridine-2′-carboxamide] | 63
CCC(CC)n1cnnc1-c1cccc(NC(=O)c2cc(-c3ccc(C4CC4)nc3)ccn2)c1 [Example 231, 6-cyclopropyl-N-(3-(4-(pentan-3-yl)-4H-1,2,4-triazol-3-yl)phenyl)-3,4′-bipyridine-2′-carboxamide] | 1420
O=C(Nc1cccc(-c2nncn2C2CC2)c1)c1cc(-c2cnc3ccn(CC(F)(F)F)c3c2)ccn1 [Example 244, N-(3-(4-cyclopropyl-4H-1,2,4-triazol-3-yl)phenyl)-4-(1-(2,2,2-trifluoroethyl)-1H-pyrrolo[3,2-b]pyridin-6-yl)picolinamide] | 25
O=C(Nc1cccc(-c2nncn2C2CC2)c1)c1cc(-c2ccc(OCC(F)(F)F)nc2)ccn1 [Example 56, N-(3-(4-cyclopropyl-4H-1,2,4-triazol-3-yl)phenyl)-6-(2,2,2-trifluoroethoxy)-3,4′-bipyridine-2′-carboxamide] | 69
Cc1cn(-c2ccnc(C(=O)Nc3cccc(-c4nncn4C4CC4)c3)c2)cn1 [Example 42, N-(3-(4-cyclopropyl-4H-1,2,4-triazol-3-yl)phenyl)-4-(4-methyl-1H-imidazol-1-yl)picolinamide] | 11
C[C@@H](CO)n1cnnc1-c1cccc(NC(=O)c2cc(-c3cccnc3)ccn2)c1 [Example 20, (S)-N-(3-(4-(1-hydroxypropan-2-yl)-4H-1,2,4-triazol-3-yl)phenyl)-3,4′-bipyridine-2′-carboxamide] | 39
CCN1CCN(c2ccnc(C(=O)Nc3cccc(-c4nncn4C4CC4)n3)c2)CC1=O [Example 178, N-(6-(4-cyclopropyl-4H-1,2,4-triazol-3-yl)pyridin-2-yl)-4-(4-ethyl-3-oxopiperazin-1-yl)picolinamide] | 7
O=C(Nc1cccc(-c2nncn2C2CC2)c1)c1cc(-c2cncc(Cl)c2)ccn1 [Example 76, 5-chloro-N-(3-(4-cyclopropyl-4H-1,2,4-triazol-3-yl)phenyl)-3,4′-bipyridine-2′-carboxamide] | 34
C[C@H](O)[C@H](C)n1cnnc1-c1cccc(NC(=O)c2cc(-c3ccc(C4CC4)nc3)ccn2)n1 [Example 246, 6-cyclopropyl-N-(6-(4-((2S,3S)-3-hydroxybutan-2-yl)-4H-1,2,4-triazol-3-yl)pyridin-2-yl)-3,4′-bipyridine-2′-carboxamide] | 6
Cc1cnc(C(=O)Nc2cccc(-c3nncn3C3CC3)n2)cc1-c1ccc(C2CC2)nc1 [Example 215, 6-cyclopropyl-N-(6-(4-cyclopropyl-4H-1,2,4-triazol-3-yl)pyridin-2-yl)-5′-methyl-3,4′-bipyridine-2′-carboxamide] | 30
O=C(Nc1cccc(-c2nncn2C2CC2)c1)c1cc(-c2cccnc2)cc(C(F)(F)F)n1 [Example 124, N-(3-(4-cyclopropyl-4H-1,2,4-triazol-3-yl)phenyl)-6′-(trifluoromethyl)-3,4′-bipyridine-2′-carboxamide] | 422
Cc1ccc(-c2ccnc(C(=O)Nc3cccc(-c4nncn4C4CC4)c3)c2)cn1 [Example 53, N-(3-(4-cyclopropyl-4H-1,2,4-triazol-3-yl)phenyl)-6-methyl-3,4′-bipyridine-2′-carboxamide] | 11
O=C(Nc1cccc(-c2nncn2C2CC2)n1)c1cc(-n2cnc3c2CCCC3)ccn1 [Example 187, N-(6-(4-cyclopropyl-4H-1,2,4-triazol-3-yl)pyridin-2-yl)-4-(4,5,6,7-tetrahydro-1H-benzo[d]imidazol-1-yl)picolinamide] | 4
O=C(Nc1cccc(-c2nncn2C2CC2)c1)c1cc(-c2ccc(C3CC3)nc2)ncn1 [Example 144, N-(3-(4-cyclopropyl-4H-1,2,4-triazol-3-yl)phenyl)-6-(6-cyclopropylpyridin-3-yl)pyrimidine-4-carboxamide] | 14
O=C(Nc1cccc(-c2nncn2C2CC2)n1)c1cc(-n2cnc(C3CC3)c2)c2ccccc2n1 [Example 226, 4-(4-cyclopropyl-1H-imidazol-1-yl)-N-(6-(4-cyclopropyl-4H-1,2,4-triazol-3-yl)pyridin-2-yl)quinoline-2-carboxamide] | 16
O=C(Nc1cccc(-c2nncn2C2CC2)c1)c1cc(-n2cnc3cnccc32)ccn1 [Example 83, N-(3-(4-cyclopropyl-4H-1,2,4-triazol-3-yl)phenyl)-4-(1H-imidazo[4,5-c]pyridin-1-yl)picolinamide] | 53
